# From the supplement of paper PMC10307832
# Tests used:
# Assay in all cases: relative viability (nuclei count vs DMSO), 5 days (fraction); higher = more cells survive
# [1] = compound: C[C@]12O[C@H](C[C@]1(O)CO)n1c3ccccc3c3c4c(c5c6ccccc6n2c5c31)CNC4=O [Lestaurtinib] + O=C(CCCCCCC(=O)Nc1ccccc1)NO [Vorinostat] (partner 1 µM)
# Summary of the method: (§1)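 Relative viability equals treated-well nuclei counts divided by vehicle-well nuclei counts. Counts came from 4× images of lung cancer cell lines grown in 1536-well plates for 5 days after pin-tool dosing on the day after seeding. Dosing used one drug alone or a fixed anchor-drug dose plus five library-drug doses (not always all listed) in √10 steps, and values are medians of duplicate plates.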
# [2] = compound: C1=CC(=CC=C1C2=CC(=C(S2)NC(=O)N)C(=O)N)F [TPCA-1] + Cc1cc(Nc2cc(N3CCN(C)CC3)nc(Sc3ccc(NC(=O)C4CC4)cc3)n2)n[nH]1 [Tozasertib] (partner 0.1 µM)
# Summary of the method: as §1
# [3] = compound: C1/C(=C\C2=CC=CS2)/C(=O)/C(=C/C3=CC=CS3)/C1 + COc1cc2c(Oc3ccc(NC(=O)C4(C(=O)Nc5ccc(F)cc5)CC4)cc3F)ccnc2cc1OCCCN1CCOCC1 [Foretinib] (partner 0.25 µM)
# Summary of the method: as §1
# [4] = compound: C1/C(=C\C2=CC=CS2)/C(=O)/C(=C/C3=CC=CS3)/C1 + CC(C)C[C@H](NC(=O)[C@H](Cc1ccccc1)NC(=O)c1cnccn1)B(O)O [Bortezomib] (partner 0.002 µM)
# Summary of the method: as §1
Cell Line,relative viability ([1]; first compound 0.005 µM),relative viability ([1]; first compound 0.01581 µM),relative viability ([1]; first compound 0.05 µM),relative viability ([1]; first compound 0.1581 µM),relative viability ([1]; first compound 0.5 µM),relative viability ([2]; first compound 0.04 µM),relative viability ([2]; first compound 0.1265 µM),relative viability ([2]; first compound 0.4 µM),relative viability ([2]; first compound 1.265 µM),relative viability ([2]; first compound 4 µM),relative viability ([3]; first compound 0.2 µM),relative viability ([3]; first compound 0.6325 µM),relative viability ([3]; first compound 2 µM),relative viability ([3]; first compound 6.325 µM),relative viability ([3]; first compound 20 µM),relative viability ([4]; first compound 0.2 µM),relative viability ([4]; first compound 0.6325 µM),relative viability ([4]; first compound 2 µM),relative viability ([4]; first compound 6.325 µM),relative viability ([4]; first compound 20 µM)
201T,1.03,1.12,1.01,0.927,0.771,0.958,0.924,1.05,0.976,0.636,1,1.09,1.25,0.752,1.02,1.17,1.08,1.13,1.04,1.08
A549,–,–,–,–,–,–,–,–,–,–,0.888,1.01,0.968,–,0.937,–,–,–,–,–
A-427,0.778,0.995,0.766,0.447,0.208,0.231,0.211,0.192,0.161,0.147,1.04,1.01,1.06,0.992,1.16,1.07,1.08,0.961,0.993,0.981
ABC-1,1.02,1.2,1.03,0.887,0.329,0.153,0.199,0.137,0.163,0.142,0.984,0.991,1.1,0.617,1.2,0.33,0.349,0.336,0.265,0.253
BEN,0.631,0.704,0.59,0.477,0.309,0.548,–,0.526,0.628,0.403,0.7,0.646,0.78,0.745,0.655,0.719,1.04,1.01,0.68,0.719
CAL-12T,0.793,0.881,0.622,0.484,0.241,0.327,0.299,0.257,0.236,0.206,1.34,1.02,1.09,0.981,1.03,1.1,1.09,1.18,0.976,1.04
COR-L23,0.618,0.433,0.294,0.212,0.115,0.155,0.168,0.18,0.134,0.129,1.09,1.09,0.874,0.859,0.958,1.12,0.983,0.978,0.946,1.01
COR-L 105,0.949,0.676,0.678,0.445,0.402,0.398,0.355,0.309,0.349,0.335,1.49,1.02,1.31,–,1.03,1.02,0.73,1.03,0.678,0.662
Calu-6,–,–,–,–,–,–,–,–,–,–,0.833,0.945,0.895,0.759,0.82,1.02,1.02,1,0.837,1.06
ChaGo-K-1,0.767,0.807,0.614,0.465,0.356,0.232,0.237,0.251,0.226,0.207,0.912,1.01,0.857,0.797,0.41,0.998,0.934,0.967,0.559,0.517
EBC-1,–,–,–,–,–,–,–,–,–,–,0.112,0.091,0.0946,0.111,0.0934,0.524,0.558,0.551,0.441,0.605
EKVX,0.744,0.742,0.765,0.578,0.368,0.387,0.332,0.428,0.354,0.284,0.82,0.696,0.603,0.615,0.778,1.11,1.02,1.12,0.933,1.1
EMC-BAC-2,0.32,0.703,0.337,0.317,0.222,0.251,0.306,0.302,0.498,0.25,1.01,1.03,0.973,0.656,1.09,1.16,1.08,1.19,0.967,1.02
EPLC-272H,0.394,0.463,0.496,0.276,0.0829,0.652,0.277,0.31,0.442,0.251,0.602,0.776,0.657,0.594,0.601,0.957,0.903,0.93,1.01,0.839
H3255,0.769,0.928,0.752,0.651,0.402,0.612,0.6,0.623,0.58,1.03,0.847,1.09,1.1,0.819,0.83,0.778,0.82,0.71,0.84,0.618
HARA,0.559,0.648,0.53,0.311,0.104,0.136,0.118,0.0913,0.0917,0.0916,0.875,0.992,0.973,0.832,0.842,1.23,1.1,1.08,0.89,1.07
HCC-15,0.88,0.983,0.701,0.446,0.205,0.413,0.438,0.338,0.276,0.15,1.09,0.994,1.03,0.917,1.06,1.06,1.03,1.03,0.884,1.03
HCC-44,1.06,1.13,1.1,1.23,0.446,1.07,0.937,0.889,–,0.294,–,–,–,–,–,0.911,0.851,0.844,0.801,0.923
HCC-78,0.442,0.407,0.386,0.311,0.243,0.406,0.413,0.427,0.477,0.205,0.581,0.602,0.56,0.444,0.481,0.623,0.464,0.534,0.463,0.301
HCC-366,0.351,0.469,0.335,0.317,0.19,0.107,0.135,0.0742,0.0631,0.0314,0.919,0.915,0.99,0.849,0.904,1.03,1.09,1.07,0.893,1.07

Cell Line,relative viability ([1]; first compound 0.005 µM),relative viability ([1]; first compound 0.01581 µM),relative viability ([1]; first compound 0.05 µM),relative viability ([1]; first compound 0.1581 µM),relative viability ([1]; first compound 0.5 µM),relative viability ([2]; first compound 0.04 µM),relative viability ([2]; first compound 0.1265 µM),relative viability ([2]; first compound 0.4 µM),relative viability ([2]; first compound 1.265 µM),relative viability ([2]; first compound 4 µM),relative viability ([3]; first compound 0.2 µM),relative viability ([3]; first compound 0.6325 µM),relative viability ([3]; first compound 2 µM),relative viability ([3]; first compound 6.325 µM),relative viability ([3]; first compound 20 µM),relative viability ([4]; first compound 0.2 µM),relative viability ([4]; first compound 0.6325 µM),relative viability ([4]; first compound 2 µM),relative viability ([4]; first compound 6.325 µM),relative viability ([4]; first compound 20 µM)
HCC-827,0.817,0.961,0.869,0.924,0.244,0.472,0.42,0.389,0.443,0.272,1.04,0.939,1.02,0.96,1,1.1,1.07,0.993,0.84,1.05
HOP-62,0.632,0.767,0.494,0.426,0.295,0.368,0.367,0.392,0.292,0.27,1.08,1.07,1.07,0.922,1.09,0.619,0.765,0.94,0.979,0.634
IA-LM,1.2,1.05,1.02,1.33,0.625,–,–,–,–,–,1.17,1.24,1.21,1.08,1.06,0.809,0.909,0.886,0.753,0.665
LC-2-ad,0.713,0.768,0.41,0.296,0.203,0.514,0.41,0.469,0.459,0.315,0.971,0.941,0.99,0.817,0.89,1.03,1.05,1.02,0.871,1.02
LK-2,0.237,0.353,0.198,0.193,0.154,0.167,0.176,0.187,0.172,0.16,1.57,1.51,1.11,1.18,1.41,–,–,–,–,–
NCI-H358,0.691,0.539,0.382,0.145,0.117,0.126,0.113,0.108,0.105,0.0839,0.668,0.742,0.761,–,0.631,–,–,–,–,–
NCI-H522,0.964,1.13,0.895,0.785,0.474,0.562,0.589,0.586,0.578,0.553,–,–,–,–,–,–,–,–,–,–
NCI-H1299,–,–,–,–,–,–,–,–,–,–,1.17,1.12,1.1,1.03,1.11,1.07,1.05,0.96,0.898,1.03
NCI-H1395,0.696,0.902,0.607,0.47,0.343,0.906,0.69,0.766,0.657,0.61,0.992,0.945,1.18,0.861,1.01,–,–,–,–,–
NCI-H1563,–,–,–,–,–,–,–,–,–,–,0.952,1.1,0.968,0.895,0.93,1.01,0.912,1.11,0.86,0.859
NCI-H1623,–,–,–,–,–,0.408,0.402,0.454,0.437,0.37,0.863,0.907,0.871,0.786,0.821,–,–,–,–,–
NCI-H1648,–,0.543,–,0.807,0.29,0.548,0.355,0.486,0.573,0.379,–,–,–,–,–,–,–,–,–,–
NCI-H1703,–,–,–,–,–,–,–,–,–,–,0.381,0.451,0.33,0.257,0.337,0.338,0.432,0.28,0.25,0.336
NCI-H1792,–,–,–,–,–,–,–,–,–,–,–,–,–,–,–,0.968,0.957,1.06,–,0.832
NCI-H1793,0.531,0.884,0.561,0.524,0.252,0.33,–,0.307,0.235,0.165,0.754,0.629,0.783,0.579,0.625,–,–,–,–,–
NCI-H1944,0.556,0.521,0.693,0.408,0.205,0.239,0.252,0.239,0.247,0.208,0.918,0.828,0.89,0.844,0.859,–,–,–,–,–
NCI-H2170,0.745,0.69,0.536,0.521,0.199,0.731,0.644,0.718,0.66,0.387,1.02,0.99,1.02,0.887,1.03,–,–,–,–,–
NCI-H2342,0.776,0.767,0.752,0.915,0.743,0.437,0.438,0.499,0.617,0.391,1.08,1.28,1.17,0.989,1.1,–,–,–,–,–
SK-MES-1,1.18,1.05,0.487,0.411,0.215,0.866,0.82,0.933,0.728,0.24,0.949,1,0.925,0.701,0.848,–,–,–,–,–
SW 900,0.376,0.69,0.59,0.632,0.65,0.612,0.556,0.56,0.485,0.245,0.823,0.817,0.804,0.9,1.16,–,–,–,–,–
